Experiments:
Assay type in all cases: cell-based
[1] = test system: Staphylococcus aureus ATCC 6538; experiment: Quantitative suspension test, log10 reduction in bacterial numbers; conditions: 1% w/v H2O2
From the text: Neutralisation (nullification of activity) of antimicrobial agents is required to prevent inhibitory concentrations from being transferred to the recovery medium (as discussed, for example, in Russell A. D. (2004) Factors influencing the efficacy of antimicrobial agents in Principles and Practice of Disinfection Preservation and Sterilization, 4th edition, eds Fraise A. P., Lambert P. A. and Maillard J. Y., pages 98-127, Oxford: Blackwell Publishing Ltd. and Russell A. D., Ahonkhai I. and Rogers, D. T. (1979) A review: microbiological applications of the inactivation of antibiotics and other antimicrobial agents. Journal of Applied Bacteriology, 46, 207-245). Thus, samples were removed at desired time points and then any hydrogen peroxide present in the sample was neutralised (i.e. deactivated) using catalase.
In the examples, catalase from bovine liver was used to neutralise the activity of any remaining hydrogen peroxide (as described in Russell A. D., Ahonkhai I. and Rogers, D. T. (1979), A review: microbiological applications of the inactivation of antibiotics and other antimicrobial agents, Journal of Applied Bacteriology, 46, 207-245) after the appropriate contact time during the experiments. Control experiments were conducted to establish whether the neutraliser nullified the activity of hydrogen peroxide and whether the neutraliser was toxic to the micro-organisms tested.
The effect of acidic pH conditions (pH 3.47 to 3.54) were investigated with and without hydrogen peroxide and air.
A quantitative suspension test (as described in Reybrouck G. (1998), The testing of disinfectants, International Biodeterioration and Biodegradation, 41, 269-272) based on the general principles of European quantitative suspension tests (BS EN1040:2005: Chemical disinfectants and antiseptics, Quantitative suspension test for the evaluation of basic bactericidal activity of chemical disinfectants and antiseptics, Test method and requirements (phase 1), London: British Standards Institute; BS EN 1276:1997: Chemical disinfectants and antiseptics, Quantitative suspension test for the evaluation of bactericidal activity of chemical disinfectants and antiseptics used in food, industrial, domestic, and institutional areas, Test method and requirements (phase 2, step 1). London: British Standards Institute) was used to establish the basic level of activity of the catalyst in the absence of organic matter. All tests were performed independently at least three times unless otherwise stated. Low concentrations (0.2-1% w/v) of hydrogen peroxide were used so that increases in antimicrobial activity could be detected if present.
Bacteria were inoculated into 10 ml volumes of nutrient broth and incubated at 37° C. for 18 to 24 hours at a shaking speed of 100 revolutions/minute. After incubation, the bacteria were washed by centrifugation to remove the nutrient broth; supernatants were discarded and the bacterial pellets were resuspended in sterilised distilled water. 7.5 ml of the washed bacterial suspension was added to 67.5 ml of hydrogen peroxide and/or distilled water to give a specific final concentration (ranging from 0 to 1% w/v—see Tables below) of hydrogen peroxide and approximately 8 log10 colony forming units (CFU)/mL of bacteria. The resultant mixture was stirred magnetically throughout the experiment. Where applicable, 1 g (+/−0.1 g) of either modified PAN fibre (referred to as PAN1 (control) or PAN2 (control)) or catalyst (referred to as PAN1 catalyst or PAN2 catalyst or PAN3 catalyst) comprising PAN fibres was added to the resultant mixture. The experiments were performed with or without air. If air was used, 2.5 L/min was supplied via. a filtered air pump and a sterilised Pyrex gas distribution tube.
After a specific contact time (see Tables below), 1 ml aliquots were removed from the experimental flask and transferred into 9 ml of neutraliser (catalase) for 5 minutes to inactivate any remaining hydrogen peroxide.

[2] = test system: Escherichia coli ATCC 10536; experiment: Antimicrobial activity of PAN catalyst during reuse; conditions: 0.2% w/v H2O2, no air
Protocol: (§1) PAN catalyst was assessed for antimicrobial activity at first use, 48 hours after first use, 48 hours after second use and six months after first use using the same experimental conditions as described previously (see testing antimicrobial activity section).

[3] = test system: Staphylococcus aureus ATCC 6538; experiment: as above; conditions: room temperature, 1% w/v H2O2, no air
Protocol: as §1

## OO [Example H2O2, hydrogen peroxide]
[1]; air 2.5 L/min, 10 min
  Mean log10 reduction in CFU/ml: 0.61 log10 CFU/ml
[1]; air 2.5 L/min, 20 min
  Mean log10 reduction in CFU/ml: 1.27 log10 CFU/ml
[1]; air 2.5 L/min, 30 min
  Mean log10 reduction in CFU/ml: 2.57 log10 CFU/ml
[1]; air 2.5 L/min, 40 min
  Mean log10 reduction in CFU/ml: 3.84 log10 CFU/ml
[1]; air 2.5 L/min, 50 min
  Mean log10 reduction in CFU/ml: 5.07 log10 CFU/ml
[1]; air 2.5 L/min, 50 min, listed as hydrogen peroxide
  Mean log10 reduction in CFU/ml: 5 log10 CFU/ml
[1]; air 2.5 L/min, 60 min
  Mean log10 reduction in CFU/ml: 5.40 log10 CFU/ml
[1]; no air, 10 min
  Mean log10 reduction in CFU/ml: 0.70 log10 CFU/ml
[1]; no air, 20 min
  Mean log10 reduction in CFU/ml: 1.43 log10 CFU/ml
[1]; no air, 30 min
  Mean log10 reduction in CFU/ml: 2.88 log10 CFU/ml
[1]; no air, 40 min
  Mean log10 reduction in CFU/ml: 3.89 log10 CFU/ml
[1]; no air, 50 min
  Mean log10 reduction in CFU/ml: 4.97 log10 CFU/ml
[1]; no air, 60 min
  Mean log10 reduction in CFU/ml: 5.37 log10 CFU/ml
[1]; no air, 60 min, listed as hydrogen peroxide
  Mean log10 reduction in CFU/ml: 5 log10 CFU/ml
[1]; acidic pH 3.47 to 3.54, air 2.5 L/min, 10 min
  Mean log10 reduction in CFU/ml: 1.00 log10 CFU/ml
[1]; acidic pH 3.47 to 3.54, air 2.5 L/min, 20 min
  Mean log10 reduction in CFU/ml: 1.86 log10 CFU/ml
[1]; acidic pH 3.47 to 3.54, air 2.5 L/min, 30 min
  Mean log10 reduction in CFU/ml: 2.33 log10 CFU/ml
[1]; acidic pH 3.47 to 3.54, air 2.5 L/min, 40 min
  Mean log10 reduction in CFU/ml: 2.83 log10 CFU/ml
[1]; acidic pH 3.47 to 3.54, air 2.5 L/min, 50 min
  Mean log10 reduction in CFU/ml: 2.23 log10 CFU/ml
[1]; acidic pH 3.47 to 3.54, air 2.5 L/min, 60 min
  Mean log10 reduction in CFU/ml: 3.45 log10 CFU/ml
[1]; acidic pH 3.47 to 3.54, no air, 10 min
  Mean log10 reduction in CFU/ml: 0.69 log10 CFU/ml
[1]; acidic pH 3.47 to 3.54, no air, 20 min
  Mean log10 reduction in CFU/ml: 0.72 log10 CFU/ml
[1]; acidic pH 3.47 to 3.54, no air, 30 min
  Mean log10 reduction in CFU/ml: 1.30 log10 CFU/ml
[1]; acidic pH 3.47 to 3.54, no air, 40 min
  Mean log10 reduction in CFU/ml: 2.03 log10 CFU/ml
[1]; acidic pH 3.47 to 3.54, no air, 50 min
  Mean log10 reduction in CFU/ml: 2.90 log10 CFU/ml
[1]; acidic pH 3.47 to 3.54, no air, 60 min
  Mean log10 reduction in CFU/ml: 3.23 log10 CFU/ml
[1]; room temperature, no air, no catalyst, 10 min
  Mean log10 reduction in CFU/ml: 0.43 log10 CFU/ml
[1]; room temperature, no air, no catalyst, 20 min
  Mean log10 reduction in CFU/ml: 1.21 log10 CFU/ml
[1]; room temperature, no air, no catalyst, 30 min
  Mean log10 reduction in CFU/ml: 2.25 log10 CFU/ml
[1]; room temperature, no air, no catalyst, 40 min
  Mean log10 reduction in CFU/ml: 3.92 log10 CFU/ml
[1]; room temperature, no air, no catalyst, 50 min
  Mean log10 reduction in CFU/ml: 4.57 log10 CFU/ml
[1]; room temperature, no air, no catalyst, 60 min
  Mean log10 reduction in CFU/ml: 5.10 log10 CFU/ml
[2]; 35° C., 10 min
  Mean log10 reduction in CFU/ml: 2.46 log10 CFU/ml
[2]; 35° C., 20 min
  Mean log10 reduction in CFU/ml: 3.77 log10 CFU/ml
[2]; 35° C., 30 min
  Mean log10 reduction in CFU/ml: ≧5.30 log10 CFU/ml
[2]; 35° C., 30 min, listed as hydrogen peroxide
  Mean log10 reduction in CFU/ml: greater than or equal to 5.30 log10 CFU/ml
[2]; 35° C., 40 min
  Mean log10 reduction in CFU/ml: >5.50 log10 CFU/ml
[2]; 35° C., 50 min
  Mean log10 reduction in CFU/ml: >5.50 log10 CFU/ml
[2]; 35° C., 60 min
  Mean log10 reduction in CFU/ml: >5.50 log10 CFU/ml
[2]; room temperature, 10 min
  Mean log10 reduction in CFU/ml: 1.01 log10 CFU/ml
[2]; room temperature, 20 min
  Mean log10 reduction in CFU/ml: 2.08 log10 CFU/ml
[2]; room temperature, 30 min
  Mean log10 reduction in CFU/ml: 3.28 log10 CFU/ml
[2]; room temperature, 40 min
  Mean log10 reduction in CFU/ml: 4.00 log10 CFU/ml
[2]; room temperature, 50 min
  Mean log10 reduction in CFU/ml: 5.17 log10 CFU/ml
[2]; room temperature, 60 min
  Mean log10 reduction in CFU/ml: >5.50 log10 CFU/ml
[3]; 10 min
  Mean log10 reduction in CFU/ml: 0.54 log10 CFU/ml
[3]; 20 min
  Mean log10 reduction in CFU/ml: 1.18 log10 CFU/ml
[3]; 30 min
  Mean log10 reduction in CFU/ml: 2.68 log10 CFU/ml
[3]; 40 min
  Mean log10 reduction in CFU/ml: 3.56 log10 CFU/ml
[3]; 50 min
  Mean log10 reduction in CFU/ml: 4.62 log10 CFU/ml
[3]; 60 min
  Mean log10 reduction in CFU/ml: 5.08 log10 CFU/ml

Source: US8513303B2, “Antimicrobial agent” (De Montfort University, priority 2007, dated 2013)
